The target in test [1] is T1, human CRTH2 (Homo sapiens, UniProt Q9Y5Y4, V204A).
T1 sequence (Q9Y5Y4 1-395 V204A): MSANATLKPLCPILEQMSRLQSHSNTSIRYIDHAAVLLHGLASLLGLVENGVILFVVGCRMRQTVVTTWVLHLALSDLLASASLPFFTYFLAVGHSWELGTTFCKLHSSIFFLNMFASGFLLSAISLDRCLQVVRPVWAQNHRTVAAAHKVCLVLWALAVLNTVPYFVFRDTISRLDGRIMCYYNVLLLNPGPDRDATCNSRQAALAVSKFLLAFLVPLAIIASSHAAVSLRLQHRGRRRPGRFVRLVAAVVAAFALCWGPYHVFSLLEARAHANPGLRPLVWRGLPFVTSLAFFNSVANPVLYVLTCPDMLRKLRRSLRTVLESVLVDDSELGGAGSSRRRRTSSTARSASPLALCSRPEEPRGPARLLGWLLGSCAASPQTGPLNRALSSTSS
The test is described as follows: Functional antagonist BRET assay on HEK293 cells stably expressing human CRTH2-Rluc and GFP2-β-arr2. Type of test: cell-based. The arrangement: expressed in transfected cells. Conditions: read-out: Antag. IC50. The method in brief:
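Cells (2×10^6/mL in D-PBS with glucose) were preincubated 15 min with antagonist at 1% DMSO, then agonist and DeepBlueC were co-injected. Emission at 400 and 515 nm was read 5 s later, and the mBRET ratio (515/400 nm) was used to derive IC50 from concentration–response curves.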

Test [2] has as its target T1, human CRTH2. Description: Receptor binding assay: [3H]PGD2 competition binding on whole COS-7 cells transiently transfected with CRTH2 (also stable HEK293 cells). The arrangement: expressed in transfected cells; host or cells: COS-7 (transient, calcium phosphate). The method in brief: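 Whole COS-7 cells transiently transfected with human CRTH2 (calcium phosphate), or stable HEK293 cells, competed against 0.1 nM [3H]PGD2 in HBSS/10 mM HEPES with 1% DMSO, 3 h at 4 °C. Nonspecific binding with 10 μM PGD2; scintillation counting, duplicates. IC50 from curve fitting.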

The mark [3] stands for this setting: functional antagonist assay, Table 3.
[4] abbreviates: receptor binding assay, Table 3.
The mark [5] stands for this setting: BRET, antagonist incubated 15 minutes prior to agonist.
Setting [6] is: competition with 0.1 nM [3H]PGD2, whole cells, 3 h at 4° C.

pIC50: −log10 of the molar value. Some results are limits rather than exact numbers.

`Cc1ccc(Cc2noc(-c3cc(Br)ccc3OCC(=O)O)n2)cc1` [D126, {4-Bromo-2-[3-(4-methylbenzyl)-[1,2,4]oxadiazol-5-yl]phenoxy}acetic acid]: the negative-log IC50 (pIC50) in test [1] (setting [3]) and in test [2] (setting [4]) was more than 6.30 in each case.
With `O=C(O)COc1ccc(Br)cc1-c1nc(-c2ccc(C(F)(F)F)cc2)no1` [D106, {4-Bromo-2-[3-(4-trifluoromethyl-phenyl)-[1,2,4]oxadiazol-5-yl]phenoxy}-acetic acid], the pIC50 in test [1] (setting [3]) and in test [2] (setting [4]) was more than 6.30 throughout.
Consider `O=C(O)COc1ccc(Br)cc1C=NNc1ccccn1` [D151], for which the pIC50 in test [1] (setting [5]) was less than 5.30; in test [2] (setting [6]) it was more than 6.30.
On the same counts, the results for `CC(Oc1ccc(Br)cc1C(=O)c1cnn(-c2ccccc2Oc2ccccc2)c1)C(=O)O` (stereo not shown) [D47, 2-{4-Bromo-2-[1-(2-phenoxyphenyl)-1H-pyrazole-4-carbonyl]phenoxy}propionic acid] are more than 6.30 and more than 6.30.
On the same counts, the results for `Cc1ccc(OCC(=O)O)c(C(=O)c2cnn(-c3ccccc3)c2)c1` [D11, [4-Methyl-2-(1-phenyl-1H-pyrazole-4-carbonyl)phenoxy]acetic acid] are 5.30 to 6.30 and more than 6.30.
With `CCOc1ccc(-c2nc(-c3cc(Br)ccc3OCC(=O)O)co2)cc1` [D87, {4-Bromo-2-[2-(4-ethoxyphenyl)oxazol-4-yl]phenoxy}acetic acid], the figures for the pIC50 in test [1] (setting [5]) and in test [2] (setting [6]) were less than 5.30 and more than 6.30, respectively.
Consider `COc1ccccc1-c1noc(-c2cc(Br)ccc2OCC(=O)O)n1` [D107, {4-Bromo-2-[3-(2-methoxyphenyl)-[1,2,4]oxadiazol-5-yl]phenoxy}acetic acid], for which the negative logarithm of the IC50 (pIC50) in test [1] (setting [3]) and in test [2] (setting [4]) was more than 6.30 throughout.
As for `CC1(Cc2cc(Br)ccc2OCC(=O)O)SC(=O)N(Cc2ccc(Cl)cc2)C1=O` (stereo not shown) [D146, 4-Bromo-2-[3-(4-chlorobenzyl)-5-methyl-2,4-dioxothiazolidin-5-ylmethyl]phenoxyacetic acid], the negative logarithm of the IC50 (pIC50) in test [1] (setting [5]) and in test [2] (setting [6]) was more than 6.30 each time.
In the case of `COc1ccc(Cc2noc(-c3cc(Br)ccc3OCC(=O)O)n2)cc1` [D118, {4-Bromo-2-[3-(4-methoxy-benzyl)-[1,2,4]oxadiazol-5-yl]-phenoxy}-acetic acid], the negative logarithm of the IC50 (pIC50) in test [1] (setting [3]) and in test [2] (setting [4]) was more than 6.30 throughout.
For `COc1ccc(-c2ccc(-c3nc(-c4cc(Br)ccc4OCC(=O)O)no3)cc2)cc1` [D134, {4-Bromo-2-[5-(4′-methoxybiphenyl-4-yl)-[1,2,4]oxadiazol-3-yl]phenoxy}acetic acid], the pIC50 in test [1] (setting [5]) and in test [2] (setting [6]) was more than 6.30 each time.
Turning to `O=C(O)COc1ccc(-c2cc(F)cc(F)c2)cc1C(=O)c1cnn(-c2ccccc2)c1` [D8, [3′,5′-Difluoro-3-(1-phenyl-1H-pyrazole-4-carbonyl)biphenyl-4-yloxy]acetic acid], the pIC50 in test [1] (setting [5]) is 5.30 to 6.30; in test [2] (setting [6]), more than 6.30.

These data come from patent US20110269763A1, “CRTH2 receptor ligands for medicinal uses” (7TM Pharma A/S, priority 2004, published 2011).
